Legend:
[1] = tested on: MDR1; assay: Apparent permeability in MDCK cells harboring MDR1; assay type: ADME, cell-based, Canis lupus familiaris; conditions: dog
[2] = tested on: MDR1; assay: Efflux ratio of apparent permeability from basolateral to apical over apical to basolateral side in MDCK cells harboring MDR1; assay type: ADME, cell-based, Canis lupus familiaris; conditions: dog
[3] = target: Proto-oncogene tyrosine-protein kinase Src (Homo sapiens) (UniProt P12931); assay: Inhibition of SRC ATP binding site (QGAKFPIKWTAPEAALYGR) in human PBMC at 0.1 uM
[4] = target: Calcium/calmodulin-dependent protein kinase type II subunit alpha (Homo sapiens) (UniProt Q9UQM7); assay: Inhibition of CaMK2a labeling at conserved Lys2 (DLKPENLLLASK) in human PBMC at 1 uM
Chain of Calcium/calmodulin-dependent protein kinase type II subunit alpha (Homo sapiens) (Q9UQM7 whole entry): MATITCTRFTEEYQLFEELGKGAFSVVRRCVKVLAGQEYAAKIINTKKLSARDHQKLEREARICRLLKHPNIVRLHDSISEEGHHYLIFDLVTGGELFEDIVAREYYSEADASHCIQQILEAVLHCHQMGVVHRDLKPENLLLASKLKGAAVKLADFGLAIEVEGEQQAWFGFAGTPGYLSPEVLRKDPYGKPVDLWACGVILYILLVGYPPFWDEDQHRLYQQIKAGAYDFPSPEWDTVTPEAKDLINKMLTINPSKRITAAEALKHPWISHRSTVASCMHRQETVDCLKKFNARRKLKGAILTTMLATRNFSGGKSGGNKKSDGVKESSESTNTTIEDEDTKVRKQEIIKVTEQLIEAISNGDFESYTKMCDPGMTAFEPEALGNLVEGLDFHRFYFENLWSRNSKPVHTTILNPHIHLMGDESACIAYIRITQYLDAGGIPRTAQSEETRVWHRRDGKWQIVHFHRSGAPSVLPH

[5] = target: Serine/threonine-protein kinase Chk2 (Homo sapiens) (UniProt O96017); assay: Inhibition of CHK2 labeling at conserved Lys2 (DLKPENVLLSSQEEDCLIK) in human PBMC at 1 uM
Chain of Serine/threonine-protein kinase Chk2 (Homo sapiens) (O96017 whole entry): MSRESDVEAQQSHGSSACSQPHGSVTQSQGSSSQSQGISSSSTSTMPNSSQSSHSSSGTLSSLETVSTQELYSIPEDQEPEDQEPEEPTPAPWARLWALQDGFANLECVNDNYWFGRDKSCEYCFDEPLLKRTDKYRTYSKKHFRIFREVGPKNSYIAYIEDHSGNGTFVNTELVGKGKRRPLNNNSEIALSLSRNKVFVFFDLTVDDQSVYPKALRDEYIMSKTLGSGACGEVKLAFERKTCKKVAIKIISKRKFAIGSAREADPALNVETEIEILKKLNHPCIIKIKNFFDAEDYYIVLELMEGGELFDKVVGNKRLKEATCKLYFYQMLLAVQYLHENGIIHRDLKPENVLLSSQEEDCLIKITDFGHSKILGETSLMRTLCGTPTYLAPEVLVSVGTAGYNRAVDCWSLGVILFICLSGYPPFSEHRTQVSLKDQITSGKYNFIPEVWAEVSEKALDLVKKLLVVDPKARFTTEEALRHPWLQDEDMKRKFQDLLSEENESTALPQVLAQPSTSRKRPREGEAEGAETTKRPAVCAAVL

[6] = target: Mitogen-activated protein kinase 1 (Homo sapiens) (UniProt P28482); assay: Inhibition of Erk2 ATP binding site (DLKPSNLLLNTTCDLK) in human PBMC at 1 uM
[7] = target: Inhibitor of nuclear factor kappa-B kinase subunit alpha (Homo sapiens) (UniProt O15111); assay: Inhibition of IKKa conserved Lys2 (DLKPENIVLQDVGGK) in human PBMC at 1 uM
[8] = target: T1, Interleukin-1 receptor-associated kinase 4 (Homo sapiens) (UniProt Q9NWZ3); assay: Inhibition of IRAK4 conserved Lys1 (GYVNNTTVAVKK) in human PBMC at 1 uM
T1 sequence (whole entry): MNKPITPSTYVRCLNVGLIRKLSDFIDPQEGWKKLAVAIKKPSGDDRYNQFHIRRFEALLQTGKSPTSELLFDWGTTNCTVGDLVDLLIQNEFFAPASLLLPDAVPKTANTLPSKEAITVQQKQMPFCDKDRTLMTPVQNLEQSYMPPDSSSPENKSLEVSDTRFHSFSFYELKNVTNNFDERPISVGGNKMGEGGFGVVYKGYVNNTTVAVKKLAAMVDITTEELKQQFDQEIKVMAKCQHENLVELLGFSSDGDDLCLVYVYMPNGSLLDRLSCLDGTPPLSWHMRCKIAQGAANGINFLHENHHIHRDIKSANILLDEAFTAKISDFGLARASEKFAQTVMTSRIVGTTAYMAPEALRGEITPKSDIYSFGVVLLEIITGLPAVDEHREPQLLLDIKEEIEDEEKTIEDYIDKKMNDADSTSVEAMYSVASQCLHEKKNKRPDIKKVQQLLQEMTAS

[9] = target: Serine/threonine-protein kinase 10 (Homo sapiens) (UniProt O94804); assay: Inhibition of LOK conserved Lys2 (DLKAGNVLMTLEGDIR) in human PBMC at 1 uM; conditions: pooled result: one value given for 6 cell lines, strains, targets or settings
Chain of Serine/threonine-protein kinase 10 (Homo sapiens) (O94804 whole entry, looked up): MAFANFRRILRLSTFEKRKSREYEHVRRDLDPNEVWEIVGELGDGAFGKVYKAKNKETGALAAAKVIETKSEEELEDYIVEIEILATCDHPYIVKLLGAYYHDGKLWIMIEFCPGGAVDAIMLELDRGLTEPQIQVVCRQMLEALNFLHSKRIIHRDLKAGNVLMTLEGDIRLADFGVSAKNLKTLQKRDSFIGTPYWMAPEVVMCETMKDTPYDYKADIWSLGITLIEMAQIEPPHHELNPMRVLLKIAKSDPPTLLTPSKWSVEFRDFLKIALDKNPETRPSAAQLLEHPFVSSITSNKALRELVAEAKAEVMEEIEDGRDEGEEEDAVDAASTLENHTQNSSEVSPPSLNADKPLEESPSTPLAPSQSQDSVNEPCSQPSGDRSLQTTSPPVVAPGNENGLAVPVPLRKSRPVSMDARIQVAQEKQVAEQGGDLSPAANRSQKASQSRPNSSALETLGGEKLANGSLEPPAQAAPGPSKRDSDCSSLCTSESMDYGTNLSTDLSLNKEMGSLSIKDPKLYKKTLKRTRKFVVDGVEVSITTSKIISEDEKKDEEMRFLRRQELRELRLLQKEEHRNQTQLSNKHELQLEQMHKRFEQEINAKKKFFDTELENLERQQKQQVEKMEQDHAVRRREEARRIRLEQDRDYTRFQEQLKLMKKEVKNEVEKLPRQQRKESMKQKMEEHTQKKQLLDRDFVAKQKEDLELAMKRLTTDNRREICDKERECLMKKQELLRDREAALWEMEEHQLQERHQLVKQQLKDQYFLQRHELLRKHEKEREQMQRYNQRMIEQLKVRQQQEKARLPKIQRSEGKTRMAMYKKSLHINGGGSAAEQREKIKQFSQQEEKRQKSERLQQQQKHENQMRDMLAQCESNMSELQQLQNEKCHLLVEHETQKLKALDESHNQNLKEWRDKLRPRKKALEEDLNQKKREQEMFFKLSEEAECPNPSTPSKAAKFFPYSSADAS

[10] = target: Ribosomal protein S6 kinase beta-2 (Homo sapiens) (UniProt Q9UBS0); assay: Inhibition of p70S6Kb ATP binding site (GGYGKVFQVR) in human PBMC at 1 uM
Chain of Ribosomal protein S6 kinase beta-2 (Homo sapiens) (Q9UBS0 whole entry): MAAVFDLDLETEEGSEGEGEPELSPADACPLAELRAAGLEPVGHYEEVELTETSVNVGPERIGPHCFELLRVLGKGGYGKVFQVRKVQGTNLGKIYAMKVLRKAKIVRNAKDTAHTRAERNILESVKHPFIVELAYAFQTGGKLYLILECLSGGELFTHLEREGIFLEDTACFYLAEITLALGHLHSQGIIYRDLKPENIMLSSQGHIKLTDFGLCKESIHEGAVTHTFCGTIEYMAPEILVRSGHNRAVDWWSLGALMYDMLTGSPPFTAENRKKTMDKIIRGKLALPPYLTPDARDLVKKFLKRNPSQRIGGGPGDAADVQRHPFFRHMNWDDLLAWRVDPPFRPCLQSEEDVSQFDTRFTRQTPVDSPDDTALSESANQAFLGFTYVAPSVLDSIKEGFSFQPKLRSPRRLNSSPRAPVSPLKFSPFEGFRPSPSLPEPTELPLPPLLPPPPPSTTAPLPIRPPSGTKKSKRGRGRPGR

[11] = target: STE20-like serine/threonine-protein kinase (Homo sapiens) (UniProt Q9H2G2); assay: Inhibition of SLK conserved Lys2 (DLKAGNILFTLDGDIK) in human PBMC at 1 uM
[12] = target: Serine/threonine-protein kinase SMG1 (Homo sapiens) (UniProt Q96Q15); assay: Inhibition of SMG1 ATP binding site (DTVTIHSVGGTITILPTKTKPK) in human PBMC at 1 uM
[13] = target: Serine/threonine-protein kinase TAO2 (Homo sapiens) (UniProt Q9UL54); assay: Inhibition of TAO2 conserved Lys2 (DVKAGNILLSEPGLVK) in human PBMC at 1 uM
Chain of Serine/threonine-protein kinase TAO2 (Homo sapiens) (Q9UL54 whole entry): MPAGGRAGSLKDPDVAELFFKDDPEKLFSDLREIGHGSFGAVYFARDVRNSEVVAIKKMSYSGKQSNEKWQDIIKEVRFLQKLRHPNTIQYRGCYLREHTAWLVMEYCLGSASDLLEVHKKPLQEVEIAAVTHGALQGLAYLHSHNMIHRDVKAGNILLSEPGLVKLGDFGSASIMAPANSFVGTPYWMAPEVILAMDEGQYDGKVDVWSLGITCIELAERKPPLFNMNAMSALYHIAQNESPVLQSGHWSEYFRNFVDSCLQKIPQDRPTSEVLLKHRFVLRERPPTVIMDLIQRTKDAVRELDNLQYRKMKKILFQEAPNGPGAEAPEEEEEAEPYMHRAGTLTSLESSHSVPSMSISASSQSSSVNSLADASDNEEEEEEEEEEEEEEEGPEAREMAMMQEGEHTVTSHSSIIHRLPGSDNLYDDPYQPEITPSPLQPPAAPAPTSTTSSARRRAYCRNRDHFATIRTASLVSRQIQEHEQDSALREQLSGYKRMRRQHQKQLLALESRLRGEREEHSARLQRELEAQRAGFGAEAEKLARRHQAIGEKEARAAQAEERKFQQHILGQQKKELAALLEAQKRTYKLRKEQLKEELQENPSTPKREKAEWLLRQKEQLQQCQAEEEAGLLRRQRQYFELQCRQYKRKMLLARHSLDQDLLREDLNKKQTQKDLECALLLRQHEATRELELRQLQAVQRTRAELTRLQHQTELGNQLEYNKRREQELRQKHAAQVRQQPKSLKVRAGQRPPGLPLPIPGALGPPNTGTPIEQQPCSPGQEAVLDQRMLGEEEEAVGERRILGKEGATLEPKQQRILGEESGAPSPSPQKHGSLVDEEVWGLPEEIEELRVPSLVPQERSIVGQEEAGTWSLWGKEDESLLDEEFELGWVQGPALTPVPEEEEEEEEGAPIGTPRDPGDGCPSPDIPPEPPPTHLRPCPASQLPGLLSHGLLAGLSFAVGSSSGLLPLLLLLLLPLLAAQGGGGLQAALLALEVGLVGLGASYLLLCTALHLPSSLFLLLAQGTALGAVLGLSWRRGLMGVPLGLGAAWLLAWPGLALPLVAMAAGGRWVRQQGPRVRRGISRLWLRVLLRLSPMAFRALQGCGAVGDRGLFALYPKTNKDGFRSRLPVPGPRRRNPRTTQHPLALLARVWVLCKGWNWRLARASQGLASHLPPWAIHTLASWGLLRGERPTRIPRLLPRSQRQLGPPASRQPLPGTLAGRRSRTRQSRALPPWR

[14] = target: T2, Serine/threonine-protein kinase ULK3 (Homo sapiens) (UniProt Q6PHR2); assay: Inhibition of ULK3 conserved Lys2 (NISHLDLKPQNILLSSLEKPHLK) in human PBMC at 1 uM
T2 sequence (whole entry): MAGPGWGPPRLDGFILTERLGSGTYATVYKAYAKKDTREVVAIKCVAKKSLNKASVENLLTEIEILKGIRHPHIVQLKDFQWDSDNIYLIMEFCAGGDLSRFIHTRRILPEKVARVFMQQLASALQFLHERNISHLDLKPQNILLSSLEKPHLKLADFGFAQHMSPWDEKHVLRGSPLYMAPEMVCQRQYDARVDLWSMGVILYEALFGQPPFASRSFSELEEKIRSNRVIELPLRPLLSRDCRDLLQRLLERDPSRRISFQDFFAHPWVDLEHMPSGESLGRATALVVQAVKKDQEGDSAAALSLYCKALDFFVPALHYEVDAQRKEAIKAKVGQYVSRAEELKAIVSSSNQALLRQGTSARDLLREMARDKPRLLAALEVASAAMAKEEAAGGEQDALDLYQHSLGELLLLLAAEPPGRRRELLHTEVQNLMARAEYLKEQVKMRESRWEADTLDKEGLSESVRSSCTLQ

[15] = target: Serine/threonine-protein kinase WNK2 (Homo sapiens) (UniProt Q9Y3S1); assay: Inhibition of Wnk2 activation Loop (IGDLGLATLKR) in human PBMC at 1 uM
[16] = target: Tyrosine-protein kinase ABL1 (Homo sapiens) (UniProt P00519); assay: Inhibition of ABL labeling at activation Loop (LMTGDTYTAHAGAKFPIK) in human PBMC at 0.1 uM
[17] = target: 5'-AMP-activated protein kinase catalytic subunit alpha-1 (Homo sapiens) (UniProt Q13131); assay: Inhibition of AMPKa1 labeling at conserved Lys1 (VAVKILNR) in human PBMC at 0.1 uM
[18] = target: Tyrosine-protein kinase Lyn (Homo sapiens) (UniProt P07948); assay: Inhibition of LYN activation Loop (EGAKFPIKWTAPEAINFGCFTIK) in human PBMC at 0.1 uM
[19] = target: Dual specificity mitogen-activated protein kinase kinase 7 (Homo sapiens) (UniProt O14733); assay: Inhibition of MAP2K7 conserved Lys2 (DVKPSNILLDER) in human PBMC at 0.1 uM
Chain of Dual specificity mitogen-activated protein kinase kinase 7 (Homo sapiens) (O14733 whole entry, the tested form may be a part): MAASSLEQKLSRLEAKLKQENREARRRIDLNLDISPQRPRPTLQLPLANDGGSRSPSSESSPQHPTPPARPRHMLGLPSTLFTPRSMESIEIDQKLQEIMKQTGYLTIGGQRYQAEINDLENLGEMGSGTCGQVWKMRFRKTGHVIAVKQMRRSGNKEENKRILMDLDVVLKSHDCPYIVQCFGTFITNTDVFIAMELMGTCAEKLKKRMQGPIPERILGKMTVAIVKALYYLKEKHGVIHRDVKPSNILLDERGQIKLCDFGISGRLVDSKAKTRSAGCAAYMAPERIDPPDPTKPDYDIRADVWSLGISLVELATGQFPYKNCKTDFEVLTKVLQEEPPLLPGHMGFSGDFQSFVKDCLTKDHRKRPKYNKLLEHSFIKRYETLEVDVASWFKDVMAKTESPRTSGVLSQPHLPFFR

[20] = target: Ribosomal protein S6 kinase alpha-4 (Homo sapiens) (UniProt O75676); assay: Inhibition of MSK2 domain1 conserved Lys2 (DIKLENILLDSNGHVVLTDFGLSK) in human PBMC at 0.1 uM
Chain of Ribosomal protein S6 kinase alpha-4 (Homo sapiens) (O75676 whole entry, looked up, the tested form may be a part): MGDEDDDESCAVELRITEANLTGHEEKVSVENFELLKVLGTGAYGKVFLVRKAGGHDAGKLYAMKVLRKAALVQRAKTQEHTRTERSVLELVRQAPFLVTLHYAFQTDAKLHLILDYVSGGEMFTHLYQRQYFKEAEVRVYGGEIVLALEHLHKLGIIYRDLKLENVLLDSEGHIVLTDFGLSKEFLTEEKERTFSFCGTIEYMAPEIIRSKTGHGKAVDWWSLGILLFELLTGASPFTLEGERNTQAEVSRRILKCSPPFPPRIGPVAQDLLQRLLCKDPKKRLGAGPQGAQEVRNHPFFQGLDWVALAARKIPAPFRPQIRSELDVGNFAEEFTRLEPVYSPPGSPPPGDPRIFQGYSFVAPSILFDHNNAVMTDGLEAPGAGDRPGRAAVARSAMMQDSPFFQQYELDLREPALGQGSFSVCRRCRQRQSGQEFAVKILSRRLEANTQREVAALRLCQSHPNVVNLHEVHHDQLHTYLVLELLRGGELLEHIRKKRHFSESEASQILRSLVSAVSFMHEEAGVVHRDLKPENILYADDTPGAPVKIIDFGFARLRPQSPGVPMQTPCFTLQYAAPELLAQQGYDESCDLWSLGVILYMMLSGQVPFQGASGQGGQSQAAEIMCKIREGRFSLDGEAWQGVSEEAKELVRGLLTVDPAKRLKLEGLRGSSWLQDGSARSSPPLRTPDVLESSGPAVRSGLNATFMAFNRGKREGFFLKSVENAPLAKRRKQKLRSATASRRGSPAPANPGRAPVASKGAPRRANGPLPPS

[21] = target: Serine/threonine-protein kinase Nek6 (Homo sapiens) (UniProt Q9HC98); assay: Inhibition of NEK6 conserved Lys2 (DIKPANVFITATGVVK) in human PBMC at 0.1 uM
[22] = target: Mitogen-activated protein kinase 13 (Homo sapiens) (UniProt O15264); assay: Inhibition of p38d conserved Lys2 (DLKPGNLAVNEDCELK) in human PBMC at 0.1 uM

CC(C)n1cc(-c2cc(-c3ccc(CN4CCOCC4)cc3)cnc2N)nn1
Papp [1]: 26.3 ×10⁻⁶ cm/s
efflux ratio [2]: 0.68
inhibition [3]: -4.4%
inhibition [4]: -0.4%
inhibition [5]: -7.8%
inhibition [6]: 14.9%
inhibition [7]: -1.2%
inhibition [8]: 5%
inhibition [9]: 14.5%
inhibition [10]: -7.8%
inhibition [11]: 30.5%
inhibition [12]: -8.2%
inhibition [13]: -3.8%
inhibition [14]: 40.8%
inhibition [15]: 21.9%
inhibition [16]: -5.2%
inhibition [17]: 7.7%
inhibition [18]: 6.1%
inhibition [19]: 31.6%
inhibition [20]: 31.2%
inhibition [21]: -4.8%
inhibition [22]: 26.4%
